{"source": "ChEMBL document CHEMBL1201862", "about": "“PubChem BioAssay data set” (2004)", "key": {"[1]": {"target": "Peroxisome proliferator-activated receptor gamma/Nuclear receptor corepressor 2 (Homo sapiens, UniProt P37231+Q9Y618)", "test": "Counterscreen for NR2E3 inverse agonists: TR-FRET-based biochemical high throughput dose response assay to identify inverse agonists of the interaction between peroxisome proliferator-activated receptor gamma (PPARg) and nuclear receptor co-repressor 2 (NCOR2).", "type": "functional"}, "[2]": {"target": "Photoreceptor-specific nuclear receptor (Homo sapiens, UniProt Q9Y5X4)", "sequence (Q9Y5X4 whole entry)": "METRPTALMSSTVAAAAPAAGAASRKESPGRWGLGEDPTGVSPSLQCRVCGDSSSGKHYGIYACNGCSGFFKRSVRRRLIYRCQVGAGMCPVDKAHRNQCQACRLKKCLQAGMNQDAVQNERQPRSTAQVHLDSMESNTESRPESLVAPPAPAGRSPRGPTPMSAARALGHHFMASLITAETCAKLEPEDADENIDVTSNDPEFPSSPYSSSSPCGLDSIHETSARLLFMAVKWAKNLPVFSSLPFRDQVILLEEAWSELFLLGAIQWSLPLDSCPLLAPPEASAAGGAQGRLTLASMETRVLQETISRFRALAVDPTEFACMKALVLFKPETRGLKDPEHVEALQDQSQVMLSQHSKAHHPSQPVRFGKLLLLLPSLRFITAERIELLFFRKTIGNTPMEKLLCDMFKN", "test": "ligands suppressing NR2E3 nuclear receptor activity – biochemical, TR-FRET, dose response (AID 463256)", "type": "functional"}, "[3]": {"target": "Diphosphomevalonate decarboxylase (Streptococcus pneumoniae serotype 2 (strain D39 / NCTC 7466), UniProt Q9FD53)", "sequence (Q9FD53 whole entry)": "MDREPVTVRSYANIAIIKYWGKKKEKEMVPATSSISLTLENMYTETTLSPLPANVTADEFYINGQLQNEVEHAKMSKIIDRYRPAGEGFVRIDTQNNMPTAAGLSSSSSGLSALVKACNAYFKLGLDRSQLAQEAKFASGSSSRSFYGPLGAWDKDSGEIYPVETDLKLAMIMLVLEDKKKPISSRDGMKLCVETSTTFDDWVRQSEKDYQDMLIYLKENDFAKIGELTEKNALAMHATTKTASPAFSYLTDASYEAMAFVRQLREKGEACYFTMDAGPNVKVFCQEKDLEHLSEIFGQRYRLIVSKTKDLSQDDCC", "test": "diphosphomevalonate decarboxylase inhibitor confirmation – biochemical, cuvette format, coupled NADH fluorescence (AID 1028)", "type": "functional"}, "[4]": {"target": "5-hydroxytryptamine receptor 1A (Homo sapiens, UniProt P08908)", "sequence (P08908 whole entry)": "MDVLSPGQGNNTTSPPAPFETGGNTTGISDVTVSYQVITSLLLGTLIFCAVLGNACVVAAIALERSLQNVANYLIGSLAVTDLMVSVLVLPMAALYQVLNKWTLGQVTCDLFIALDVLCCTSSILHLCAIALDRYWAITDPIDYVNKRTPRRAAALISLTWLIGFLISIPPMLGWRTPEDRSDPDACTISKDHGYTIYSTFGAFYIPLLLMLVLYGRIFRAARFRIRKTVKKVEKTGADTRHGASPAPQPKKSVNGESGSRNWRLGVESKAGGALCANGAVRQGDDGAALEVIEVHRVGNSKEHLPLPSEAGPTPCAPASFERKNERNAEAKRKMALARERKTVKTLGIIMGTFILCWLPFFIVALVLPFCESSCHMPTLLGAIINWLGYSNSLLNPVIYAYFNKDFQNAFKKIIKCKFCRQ", "type": "functional"}, "Cytochrome P450 2C19 [5]": {"target": "T1, Cytochrome P450 2C19 (Homo sapiens, UniProt P33261)", "T1 sequence (P33261 whole entry)": "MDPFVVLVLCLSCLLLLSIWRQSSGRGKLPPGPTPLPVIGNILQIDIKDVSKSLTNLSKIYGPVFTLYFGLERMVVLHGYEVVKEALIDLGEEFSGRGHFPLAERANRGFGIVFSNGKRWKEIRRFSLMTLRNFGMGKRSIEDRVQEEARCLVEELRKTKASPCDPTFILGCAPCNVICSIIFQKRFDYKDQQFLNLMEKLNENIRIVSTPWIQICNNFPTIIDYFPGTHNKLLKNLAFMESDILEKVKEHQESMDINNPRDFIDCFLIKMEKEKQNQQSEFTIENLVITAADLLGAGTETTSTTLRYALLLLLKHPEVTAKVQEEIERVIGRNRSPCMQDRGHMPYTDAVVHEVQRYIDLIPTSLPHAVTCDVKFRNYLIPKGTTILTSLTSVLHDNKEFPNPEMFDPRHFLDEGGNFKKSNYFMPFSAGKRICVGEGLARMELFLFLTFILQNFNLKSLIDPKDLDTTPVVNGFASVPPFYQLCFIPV", "test": "qHTS Assay for Inhibitors and Substrates of Cytochrome P450 2C19. [Related pubchem assays: 410 ]", "type": "ADME", "conditions": "read-out: Potency"}, "Galanin receptor type 2": {"target": "Galanin receptor type 2 (Homo sapiens, UniProt O43603)", "test": "Dose Response cell-based high-throughput screening assay to identify antagonists of galanin receptor 2 (GALR2). [Related pubchem assays: 828, 866 ]", "type": "functional"}, "INS1": {"tested_on": "INS1", "test": "INS-1E survival protection against cytokine death – cell-based, luminescence, retest, dose response (AID 449756);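 note: cell death triggered by IL-1 beta plus TNF-alpha plus IFN-gamma mixture; protective hits raise ATP signal compared with cytokine alone wells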", "type": "functional", "conditions": "Rattus norvegicus"}, "[6]": {"test": "reduction of Shn3 3'UTR-driven luciferase in osteoblasts – cell-based, Clone20 osteoblasts, firefly luciferase, cherry-picked, dose response (AID 624132)", "type": "functional"}, "[7]": {"test": "loss of viability in HepG2 cells – cell-based, CellTiter-Glo, cherry-picked, cytotoxicity control for Shn3 inhibitor project, dose response (AID 624134)", "type": "functional"}, "[8]": {"test": "non-specific 3'UTR reporter inhibition in Clone20-Shn3RL – cell-based, Renilla luciferase, cherry-picked, counter-screen for Shn3 inhibitor project, dose response (AID 624133)", "type": "functional"}, "[9]": {"target": "Protein-tyrosine kinase 2-beta (Homo sapiens, UniProt Q14289)", "sequence (Q14289 whole entry)": "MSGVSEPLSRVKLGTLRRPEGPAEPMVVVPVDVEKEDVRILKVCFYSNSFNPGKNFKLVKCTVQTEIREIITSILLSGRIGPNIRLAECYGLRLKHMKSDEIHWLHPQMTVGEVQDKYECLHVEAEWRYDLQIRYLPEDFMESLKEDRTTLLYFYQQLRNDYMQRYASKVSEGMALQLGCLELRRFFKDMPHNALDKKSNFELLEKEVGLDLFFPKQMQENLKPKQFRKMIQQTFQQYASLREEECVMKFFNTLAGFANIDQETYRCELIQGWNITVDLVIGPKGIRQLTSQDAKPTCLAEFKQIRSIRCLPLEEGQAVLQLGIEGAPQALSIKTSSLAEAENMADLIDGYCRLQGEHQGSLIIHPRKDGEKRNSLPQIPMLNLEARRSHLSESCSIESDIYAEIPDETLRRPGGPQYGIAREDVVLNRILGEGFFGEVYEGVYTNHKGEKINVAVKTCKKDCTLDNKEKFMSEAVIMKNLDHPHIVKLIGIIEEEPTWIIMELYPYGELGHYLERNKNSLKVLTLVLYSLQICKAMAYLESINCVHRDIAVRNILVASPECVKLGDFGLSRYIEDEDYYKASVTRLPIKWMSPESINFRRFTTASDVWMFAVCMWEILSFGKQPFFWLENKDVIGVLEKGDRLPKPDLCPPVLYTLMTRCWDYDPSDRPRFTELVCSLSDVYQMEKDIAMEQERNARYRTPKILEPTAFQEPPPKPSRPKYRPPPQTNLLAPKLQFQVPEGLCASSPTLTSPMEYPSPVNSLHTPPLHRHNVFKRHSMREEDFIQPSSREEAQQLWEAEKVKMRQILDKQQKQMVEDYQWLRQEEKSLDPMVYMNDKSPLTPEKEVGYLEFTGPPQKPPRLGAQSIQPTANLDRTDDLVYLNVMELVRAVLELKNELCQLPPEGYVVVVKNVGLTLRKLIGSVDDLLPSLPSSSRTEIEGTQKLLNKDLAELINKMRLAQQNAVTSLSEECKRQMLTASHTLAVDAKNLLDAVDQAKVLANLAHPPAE"}, "Cytochrome P450 2C19 [10]": {"target": "T1, Cytochrome P450 2C19", "test": "Cytochrome panel assay with activity outcomes. Panel member name: p450-cyp2c19 Compounds with AC50 equal or less than 10 uM are considered active", "type": "functional", "conditions": "read-out: AC50"}, "Cytochrome P450 2D6": {"target": "Cytochrome P450 2D6 (Homo sapiens, UniProt P10635)", "sequence (P10635 whole entry)": "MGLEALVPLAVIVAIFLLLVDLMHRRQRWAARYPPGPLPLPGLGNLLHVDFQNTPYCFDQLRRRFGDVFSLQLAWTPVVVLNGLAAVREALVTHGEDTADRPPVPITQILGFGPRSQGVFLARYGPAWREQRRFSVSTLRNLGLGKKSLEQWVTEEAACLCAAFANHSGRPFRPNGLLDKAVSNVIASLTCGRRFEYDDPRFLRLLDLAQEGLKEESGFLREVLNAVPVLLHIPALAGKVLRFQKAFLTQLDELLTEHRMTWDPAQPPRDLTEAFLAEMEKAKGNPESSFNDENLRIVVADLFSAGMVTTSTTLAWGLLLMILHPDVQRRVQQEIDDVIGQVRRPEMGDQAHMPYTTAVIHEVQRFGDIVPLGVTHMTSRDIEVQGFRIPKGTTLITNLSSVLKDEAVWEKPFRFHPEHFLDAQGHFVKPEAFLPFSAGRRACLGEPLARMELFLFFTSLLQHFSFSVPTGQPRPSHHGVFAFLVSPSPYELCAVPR"}, "Cytochrome P450 2C9": {"target": "Cytochrome P450 2C9 (Homo sapiens, UniProt P11712)", "sequence (P11712 whole entry)": "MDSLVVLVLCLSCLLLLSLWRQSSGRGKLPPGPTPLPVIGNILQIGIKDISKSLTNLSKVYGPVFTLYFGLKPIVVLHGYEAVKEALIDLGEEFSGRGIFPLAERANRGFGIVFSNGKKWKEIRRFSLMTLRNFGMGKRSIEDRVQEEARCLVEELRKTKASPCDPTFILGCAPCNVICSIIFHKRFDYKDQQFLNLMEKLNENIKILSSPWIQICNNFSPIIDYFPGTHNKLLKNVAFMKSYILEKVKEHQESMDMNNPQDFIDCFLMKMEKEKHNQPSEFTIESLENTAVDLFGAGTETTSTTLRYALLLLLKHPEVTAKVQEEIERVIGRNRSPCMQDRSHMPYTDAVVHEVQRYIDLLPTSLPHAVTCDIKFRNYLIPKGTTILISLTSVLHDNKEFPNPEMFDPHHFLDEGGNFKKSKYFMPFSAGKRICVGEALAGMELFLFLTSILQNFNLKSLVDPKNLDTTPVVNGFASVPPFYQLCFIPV"}, "[11]": {"target": "T2, Aryl hydrocarbon receptor (Homo sapiens, UniProt P35869)", "T2 sequence (P35869 whole entry)": "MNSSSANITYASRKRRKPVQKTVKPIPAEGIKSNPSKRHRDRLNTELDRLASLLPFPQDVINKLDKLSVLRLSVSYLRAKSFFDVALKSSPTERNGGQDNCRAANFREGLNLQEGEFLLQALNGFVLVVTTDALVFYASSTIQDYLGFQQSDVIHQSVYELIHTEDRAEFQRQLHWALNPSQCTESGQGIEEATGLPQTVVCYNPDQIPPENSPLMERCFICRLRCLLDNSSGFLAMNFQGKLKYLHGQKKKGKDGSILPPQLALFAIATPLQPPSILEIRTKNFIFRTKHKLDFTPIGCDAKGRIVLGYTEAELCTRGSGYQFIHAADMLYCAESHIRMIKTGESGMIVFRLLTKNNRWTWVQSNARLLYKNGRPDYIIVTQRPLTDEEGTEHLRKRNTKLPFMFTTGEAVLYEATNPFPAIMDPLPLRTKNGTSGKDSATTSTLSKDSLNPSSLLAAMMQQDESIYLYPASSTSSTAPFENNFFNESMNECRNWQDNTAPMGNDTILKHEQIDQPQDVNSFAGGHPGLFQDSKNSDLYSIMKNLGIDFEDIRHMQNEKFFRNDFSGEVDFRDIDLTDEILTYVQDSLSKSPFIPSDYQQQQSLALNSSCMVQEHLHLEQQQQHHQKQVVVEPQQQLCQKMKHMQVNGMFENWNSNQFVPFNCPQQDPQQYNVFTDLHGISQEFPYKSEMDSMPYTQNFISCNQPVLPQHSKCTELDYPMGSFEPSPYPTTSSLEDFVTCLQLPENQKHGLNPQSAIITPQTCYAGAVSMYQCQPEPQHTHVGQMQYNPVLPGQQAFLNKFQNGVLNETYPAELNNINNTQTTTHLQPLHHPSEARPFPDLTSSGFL", "test": "Luminescence-based cell-based high throughput dose response assay for activators of the Aryl Hydrocarbon Receptor (AHR). [Related pubchem assays: 2796 (Primary screen (AHR activators in singlicate)), 2845 (Confirmation screen (AHR activators in triplicate)), 434939 (Counterscreen (PXR activators in triplicate)), 2804 (Summary (AHR activators))]", "type": "ADME"}, "[12]": {"target": "Mitogen-activated protein kinase 10 (Homo sapiens, UniProt P53779)", "sequence (P53779 whole entry)": "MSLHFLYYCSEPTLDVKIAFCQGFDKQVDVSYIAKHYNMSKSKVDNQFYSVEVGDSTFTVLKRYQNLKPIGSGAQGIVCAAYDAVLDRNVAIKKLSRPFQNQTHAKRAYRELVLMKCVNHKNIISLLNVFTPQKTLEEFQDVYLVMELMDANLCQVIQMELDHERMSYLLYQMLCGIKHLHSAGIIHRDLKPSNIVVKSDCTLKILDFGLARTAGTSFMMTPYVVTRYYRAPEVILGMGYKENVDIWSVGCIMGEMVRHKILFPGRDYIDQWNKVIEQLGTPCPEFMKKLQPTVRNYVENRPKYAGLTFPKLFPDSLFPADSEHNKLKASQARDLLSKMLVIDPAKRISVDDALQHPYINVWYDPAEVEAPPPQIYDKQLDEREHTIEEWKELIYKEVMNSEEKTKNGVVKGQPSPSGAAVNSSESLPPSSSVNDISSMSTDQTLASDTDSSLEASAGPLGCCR", "test": "Dose response biochemical screening assay for inhibitors of c-Jun N-Terminal Kinase 3 (JNK3). [Related pubchem assays: 746 ]"}, "Leucine aminopeptidase": {"target": "T3, Leucine aminopeptidase (Plasmodium falciparum 3D7, UniProt Q8IL11)", "T3 sequence (Q8IL11 whole entry)": "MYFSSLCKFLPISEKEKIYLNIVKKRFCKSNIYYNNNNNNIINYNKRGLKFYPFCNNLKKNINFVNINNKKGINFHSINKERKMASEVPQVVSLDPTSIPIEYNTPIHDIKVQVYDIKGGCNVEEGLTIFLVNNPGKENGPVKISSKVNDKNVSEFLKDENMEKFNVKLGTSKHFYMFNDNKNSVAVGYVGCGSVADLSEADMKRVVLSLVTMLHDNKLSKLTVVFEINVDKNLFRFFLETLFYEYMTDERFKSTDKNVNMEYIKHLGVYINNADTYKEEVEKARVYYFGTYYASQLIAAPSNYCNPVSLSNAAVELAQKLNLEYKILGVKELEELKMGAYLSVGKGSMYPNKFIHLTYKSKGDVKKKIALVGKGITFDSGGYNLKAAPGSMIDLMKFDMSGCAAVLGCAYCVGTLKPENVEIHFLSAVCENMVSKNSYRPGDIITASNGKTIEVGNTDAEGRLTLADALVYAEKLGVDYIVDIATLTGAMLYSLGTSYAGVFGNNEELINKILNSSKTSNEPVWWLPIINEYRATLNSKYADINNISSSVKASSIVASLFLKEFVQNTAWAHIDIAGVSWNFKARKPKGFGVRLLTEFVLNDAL", "test": "P. falciparum M17LAP inhibitors, primary screen, biochemical, fluorogenic H-Leu-NHMec substrate, 1536-well (AID 1619)", "type": "functional"}, "Aspartyl aminopeptidase": {"target": "Aspartyl aminopeptidase (Plasmodium falciparum 3D7, UniProt Q8I2J3)", "sequence (Q8I2J3 whole entry)": "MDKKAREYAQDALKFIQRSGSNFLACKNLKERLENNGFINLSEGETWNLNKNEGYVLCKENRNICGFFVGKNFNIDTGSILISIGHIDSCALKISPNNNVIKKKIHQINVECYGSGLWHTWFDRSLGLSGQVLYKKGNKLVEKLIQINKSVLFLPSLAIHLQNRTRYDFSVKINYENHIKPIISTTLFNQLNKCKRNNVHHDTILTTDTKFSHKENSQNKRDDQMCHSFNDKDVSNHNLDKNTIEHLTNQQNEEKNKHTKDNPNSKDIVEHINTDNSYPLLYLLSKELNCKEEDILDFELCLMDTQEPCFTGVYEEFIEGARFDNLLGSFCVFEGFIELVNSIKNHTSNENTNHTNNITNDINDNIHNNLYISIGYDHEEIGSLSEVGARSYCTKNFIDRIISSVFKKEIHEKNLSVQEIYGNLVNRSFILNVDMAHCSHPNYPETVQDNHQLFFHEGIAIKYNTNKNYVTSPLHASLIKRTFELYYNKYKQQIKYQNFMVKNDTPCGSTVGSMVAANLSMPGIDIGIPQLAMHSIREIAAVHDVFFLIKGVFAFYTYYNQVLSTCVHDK", "test": "Counterscreen for inhibitors of M1 and M17 aminopeptidases: QFRET-based biochemical high throughput dose response assay for inhibitors of the Plasmodium falciparum M18 Aspartyl Aminopeptidase (PFM18AAP). [Related PubChem assays: 1619 (Screening assay (M17LAP inhibitors).), 1445 (Screening assay (M1AAP inhibitors).)]"}, "Procathepsin L": {"target": "Procathepsin L (Homo sapiens, UniProt P07711)", "test": "CTSL1 protease inhibition – biochemical, QFRET, 1536-well, counter-screen for M1/M17 aminopeptidase inhibitor project, dose response (AID 2214)"}, "[13]": {"target": "T4, Tyrosine-protein phosphatase non-receptor type 7 (Homo sapiens, UniProt P35236)", "T4 sequence (P35236 whole entry)": "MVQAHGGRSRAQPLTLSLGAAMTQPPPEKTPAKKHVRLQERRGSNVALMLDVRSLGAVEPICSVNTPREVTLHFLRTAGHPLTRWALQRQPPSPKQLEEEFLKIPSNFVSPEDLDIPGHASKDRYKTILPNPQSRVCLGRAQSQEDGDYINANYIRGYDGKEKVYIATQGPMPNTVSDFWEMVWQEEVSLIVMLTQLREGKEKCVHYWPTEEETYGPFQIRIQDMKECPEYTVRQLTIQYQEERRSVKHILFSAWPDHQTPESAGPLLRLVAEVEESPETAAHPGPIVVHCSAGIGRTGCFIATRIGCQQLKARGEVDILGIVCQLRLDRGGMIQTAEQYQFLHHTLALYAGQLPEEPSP", "test": "HePTP tyrosine phosphatase activity blockers – biochemical, absorbance, leukemia target, primary screen (AID 521)", "type": "functional"}, "Streptokinase A": {"target": "T5, Streptokinase A (Streptococcus pyogenes serotype M1, UniProt P10520)", "T5 sequence (P10520 whole entry)": "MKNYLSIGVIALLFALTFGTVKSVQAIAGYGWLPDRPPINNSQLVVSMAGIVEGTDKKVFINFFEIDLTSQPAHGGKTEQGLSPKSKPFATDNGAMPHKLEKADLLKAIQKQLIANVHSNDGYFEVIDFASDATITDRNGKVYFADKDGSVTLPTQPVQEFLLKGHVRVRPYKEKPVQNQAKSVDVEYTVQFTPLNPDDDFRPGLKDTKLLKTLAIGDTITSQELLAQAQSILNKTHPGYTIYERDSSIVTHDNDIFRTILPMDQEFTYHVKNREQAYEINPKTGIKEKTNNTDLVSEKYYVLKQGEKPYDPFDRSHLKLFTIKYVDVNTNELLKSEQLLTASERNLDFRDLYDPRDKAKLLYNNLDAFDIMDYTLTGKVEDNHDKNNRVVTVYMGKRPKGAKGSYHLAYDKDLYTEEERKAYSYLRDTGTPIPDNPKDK", "test": "viability-normalized secreted streptokinase activity reduction – plasminogen activation absorbance, OD405, dose response (AID 1914);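 note: secreted streptokinase activity via plasminogen activation per viability signal from cell pellet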", "type": "functional, Streptococcus pyogenes M1 GAS"}, "Streptococcus": {"tested_on": "Streptococcus", "test": "GAS UMAA2166 growth inhibition – luminescence, BacTiterGlo, counter-screen for streptokinase expression inhibitor project, dose response (AID 1915)", "type": "functional, organism-based"}, "[14]": {"test": "HEK-293T viability loss after treatment – luminescence, T-cell screen hits, cytotoxicity control for TCR NF-kB inhibitor project, dose response (AID 489026);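 note: cells exposed to compound about 14 hours before the viability readout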", "type": "functional, cell-based"}, "14-3-3 protein gamma": {"target": "14-3-3 protein gamma (Homo sapiens, UniProt P61981)", "sequence (P61981 whole entry)": "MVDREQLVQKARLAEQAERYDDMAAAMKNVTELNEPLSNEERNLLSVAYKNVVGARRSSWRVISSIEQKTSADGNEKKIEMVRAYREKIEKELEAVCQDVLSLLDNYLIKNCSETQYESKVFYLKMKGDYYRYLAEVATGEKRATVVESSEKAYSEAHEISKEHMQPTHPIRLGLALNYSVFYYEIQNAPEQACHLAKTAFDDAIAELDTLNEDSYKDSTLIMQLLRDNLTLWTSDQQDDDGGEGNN", "test": "modulators of 14-3-3 gamma client binding – dose response (AID 711)", "type": "functional"}}, "note": "Calls of active or inactive are those of the source.", "data": [{"smiles": "COc1ccc(-n2nc(C(=O)NCC(=O)NCc3ccc(F)cc3)c3ccccc3c2=O)cc1OC", "values": [{"measurement": "IC50", "setting": "[1]", "result": "0.941 µM (active)"}, {"measurement": "IC50", "setting": "[2]", "result": "1.46 µM (active)"}]}, {"smiles": "O=C(NC1CC1)c1ccc(-n2sc3ccccc3c2=O)cc1", "values": [{"measurement": "IC50", "setting": "[3]", "result": "11.4 µM (active)"}]}, {"smiles": "O=S(=O)(c1cccc(Cl)c1)N1CCCC1", "values": [{"measurement": "EC50", "setting": "[4]", "result": "> 50 µM (not active)"}]}, {"smiles": "COC(=O)C(C(C)=O)C(NC(=O)NCc1ccccc1)c1ccccc1", "note": "(centres undefined)", "values": [{"measurement": "AC50", "setting": "Cytochrome P450 2C19 [5]", "result": "1.26 µM (inconclusive)"}]}, {"smiles": "Cc1cccc(C(=O)Nc2ccc(C(=O)/C=C/c3cccnc3)cc2)c1", "values": [{"measurement": "IC50", "setting": "Galanin receptor type 2", "result": "21.4 µM (not active)"}, {"measurement": "AC50", "setting": "INS1", "result": "5.53 µM (active)"}, {"measurement": "AC50", "setting": "[6]", "result": "6.23 µM (active)"}, {"measurement": "AC50", "setting": "[7]", "result": "30.9 µM (active)"}, {"measurement": "AC50", "setting": "[8]", "result": "10.7 µM (active)"}]}, {"smiles": "O=C(NCCc1c[nH]c2ccccc12)C1CCN(c2nnc(N3CCCC3=O)s2)CC1", "values": [{"measurement": "IC50", "setting": "[9]", "result": "22.7 µM (not active)"}, {"measurement": "AC50", "setting": "Cytochrome P450 2C19 [10]", "result": "7.94 µM (inconclusive)"}, {"measurement": "AC50", "setting": "Cytochrome P450 2D6", "result": "10 µM (inconclusive)"}, {"measurement": "AC50", "setting": "Cytochrome P450 2C9", "result": "10 µM (inconclusive)"}]}, {"smiles": "NC(=O)c1oc2ccccc2c1NC(=O)c1ccc(F)cc1", "values": [{"measurement": "EC50", "setting": "[11]", "result": "4.12 µM (active)"}, {"measurement": "IC50", "setting": "[12]", "result": "23.9 µM (not active)"}]}, {"smiles": "Cc1c(O)n(-c2ccccc2)c(SCC(=O)Nc2ccc3c4c(cccc24)CC3)nc1=O", "values": [{"measurement": "IC50", "setting": "Leucine aminopeptidase", "result": "5.11 µM (active)"}, {"measurement": "IC50", "setting": "Aspartyl aminopeptidase", "result": "> 73.5 µM (not active)"}, {"measurement": "IC50", "setting": "Procathepsin L", "result": "> 59.6 µM (not active)"}]}, {"smiles": "COc1cccc2sc(Nc3nnc(-c4ccccc4Cl)o3)nc12", "values": [{"measurement": "IC50", "setting": "[13]", "result": "> 100 µM (not active)"}, {"measurement": "EC50", "setting": "Streptokinase A", "result": "> 150 µM (not active)"}, {"measurement": "EC50", "setting": "Streptococcus", "result": "> 150 µM (inconclusive)"}, {"measurement": "IC50", "setting": "[14]", "result": "61.1 µM (inactive)"}]}, {"smiles": "Cc1nc2nc(Cc3ccccc3)nn2c(O)c1Cc1ccccc1", "values": [{"measurement": "IC50", "setting": "14-3-3 protein gamma", "result": "> 50 µM (not active)"}]}]}
